Patent publication US5256559A, “Methods and compositions for inhibiting platelet aggregation” (Biogen, Inc., priority 1991, dated 1993)
Like-named read-outs stand apart in the source and are kept apart here.

Experiments:
thrombin = thrombin (Homo sapiens, UniProt P00734); settings: cited from earlier work
plasma = assay: activated partial thromboplastin time (APTT) of plasma from patients recovered from heparin-induced thrombocytopenia; design: species or system human; settings: concentrations used in the platelet studies, FIGS. 12A and 12B
Experimental: We isolated whole blood from patients who had recovered from heparin-induced thrombocytopenia. We then centrifuged the blood at 4° C. for 15 minutes at 2,000× g in a Sorval rotor to obtain plasma. […] We measured APTT semi-automatically using a Coagamate XC (General Diagnostics Organon Teknika).

Substance | Kd (thrombin; overall tight binding, read-out: Kd, binding to thrombin in a 1:1 stoichiometric complex) | Kd (thrombin; site separate from the catalytic site, read-out: Kd, "low" affinity site on the thrombin molecule) | prolongation of APTT (plasma)
Hirudin | ~0.02 nM | ~10 nM | –
heparin | – | – | sufficient to prolong APTT into the desired therapeutic range
